The record followed here is ChEMBL document CHEMBL1201862, “PubChem BioAssay data set” (2004).

For orientation: GI50 means the concentration giving 50% growth inhibition.

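Five concentrations, 48 hours, 96-well plates. Here, GI50 denotes the concentration required for 50% inhibition of growth.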 Activity calls are given as the source filed them. No stated cut-off is given here; in the data, active = GI50 up to about 1.1 µM and inactive = higher. Some results are limits rather than exact numbers.

Some test systems named below: HCT-15; DU-145; ACHN; CCRF-CEM; SK-MEL-28; CAKI-1; MDA-MB-231; OVCAR-3; A498; EKVX; SNB-19; K562; HOP-62; MCF7; IGROV-1; A549; NCI-H226; MDA-N; NCI-H23; Malme-3M.
What all share (test): DTP human tumour cell line panel, 48 h

Take `N#CC1(O)CCCCCCCCCCC1`: the GI50 in the experiment with HCT-15 was greater than 100 µM; in the experiment with DU-145, > 100 µM (inactive); with ACHN, > 100 µM (inactive); in the experiment on CCRF-CEM, > 100 µM (inactive); with SK-MEL-28, > 100 µM (inactive); in the experiment with CAKI-1 it was > 100 µM (inactive). Moreover, the GI50 in the experiment on MDA-MB-231, with OVCAR-3, in the experiment with A498, with EKVX, with SNB-19 and with K562 was > 100 µM (inactive) throughout. In addition, the GI50 with HOP-62, in the experiment with MCF7, in the experiment with IGROV-1, in the experiment with A549, in the experiment on NCI-H226 and in the experiment on MDA-N was > 100 µM (inactive) each time. Besides, the GI50 in the experiment on NCI-H23 and in the experiment on Malme-3M was > 100 µM (inactive) throughout.
With `O=C(O)C1C(C(=O)Nc2ccc3c(c2)Cc2ccccc2-3)C2(Cl)C(Cl)=C(Cl)C1(Cl)C2(Cl)Cl` (stereo unspecified), the GI50 with HCT-15 was 21.5 µM; with DU-145, 31.1 µM (inactive); in the experiment on ACHN, 30.3 µM (inactive); in the experiment on CCRF-CEM, 18.7 µM (inactive); with SK-MEL-28 it was 21.5 µM (inactive); in the experiment with CAKI-1, 41.9 µM (inactive). Moreover, the GI50 with MDA-MB-231 was 20.2 µM (inactive); in the experiment with OVCAR-3, 17.6 µM (inactive); in the experiment with A498, 19.4 µM (inactive); in the experiment with EKVX it was 34.4 µM (inactive); with SNB-19, 36 µM (inactive); in the experiment with K562, 2.6 µM (inactive). In addition, the GI50 was 31.2 µM (inactive) in the experiment with HOP-62; 22.5 µM (inactive) in the experiment on MCF7; 20 µM (inactive) in the experiment on IGROV-1; 33.3 µM (inactive) in the experiment with A549; 29 µM (inactive) in the experiment with NCI-H226; 35.6 µM (inactive) in the experiment with MDA-N. Moreover, the GI50 was 17.5 µM (inactive) with NCI-H23 and 20.6 µM (inactive) in the experiment on Malme-3M.
Consider `Nc1ccc2c(c1)C(=O)N1CCC[C@H]1C(=O)N2`, for which the GI50 is greater than 100 µM in the experiment on HCT-15; > 100 µM (inactive) in the experiment on DU-145; > 100 µM (inactive) in the experiment with ACHN; 1.38 µM (inactive) in the experiment with CCRF-CEM; > 100 µM (inactive) in the experiment on SK-MEL-28; > 100 µM (inactive) in the experiment on CAKI-1. Besides, the GI50 in the experiment on MDA-MB-231, in the experiment on OVCAR-3, in the experiment on A498, in the experiment with EKVX, in the experiment with SNB-19 and in the experiment on K562 was > 100 µM (inactive) in each case. In addition, the GI50 in the experiment on HOP-62, in the experiment on MCF7, in the experiment with IGROV-1, in the experiment on A549, in the experiment on NCI-H226 and with MDA-N was > 100 µM (inactive) each time. For the same compound, the GI50 in the experiment with NCI-H23 and in the experiment with Malme-3M was > 100 µM (inactive) each time.
Turning to `CC(=O)NC(CC(C)C)C(=O)NC(CC(C)C)C(=O)NC(C=O)CCCNC(=N)N` (stereo unspecified), the GI50 in the experiment with HCT-15 was greater than 100 µM; in the experiment on DU-145, > 100 µM (inactive); with ACHN, > 100 µM (inactive); in the experiment on CCRF-CEM it was > 100 µM (inactive); in the experiment on SK-MEL-28 it was > 100 µM (inactive); in the experiment on CAKI-1, > 100 µM (inactive). Further, the GI50 in the experiment on MDA-MB-231, with OVCAR-3, in the experiment with A498, in the experiment on EKVX, in the experiment on SNB-19 and in the experiment on K562 was > 100 µM (inactive) each time. In addition, the GI50 in the experiment on HOP-62 is > 100 µM (inactive); with MCF7, > 100 µM (inactive); in the experiment with IGROV-1 it was > 100 µM (inactive); with A549, > 100 µM (inactive); in the experiment with NCI-H226 it was 42.3 µM (inactive); with MDA-N it was > 100 µM (inactive). For the same compound, the GI50 was > 100 µM (inactive) in the experiment on NCI-H23 and 72.6 µM (inactive) in the experiment on Malme-3M.
Turning to `COC(=O)C1=C(C(=O)OC)C(C(=O)c2ccc(Br)cc2)N2N=C(c3ccc(Cl)cc3)C=CC12` (stereo unspecified), the GI50 in the experiment with HCT-15 was greater than 100 µM; in the experiment on DU-145, > 100 µM (inactive); with ACHN it was > 100 µM (inactive); with CCRF-CEM, > 100 µM (inactive); with SK-MEL-28 it was > 100 µM (inactive); in the experiment on CAKI-1, 80.7 µM (inactive). Also, the GI50 with MDA-MB-231, in the experiment with OVCAR-3, in the experiment with A498, with EKVX, in the experiment on SNB-19 and in the experiment with K562 was > 100 µM (inactive) throughout. The GI50 was > 100 µM (inactive) with HOP-62; 82.8 µM (inactive) with MCF7; > 100 µM (inactive) in the experiment with IGROV-1; 98.2 µM (inactive) in the experiment on A549; > 100 µM (inactive) in the experiment on NCI-H226; > 100 µM (inactive) with MDA-N. The GI50 with NCI-H23 and with Malme-3M was > 100 µM (inactive) in each case.
Consider `Cc1ccc(/N=C2\OP(=O)(Nc3ccc(C)cc3)Oc3ccccc32)cc1` (stereo unspecified), for which the GI50 with HCT-15 is greater than 100 µM; with DU-145, > 100 µM (inactive); in the experiment with ACHN, > 100 µM (inactive); in the experiment with CCRF-CEM, > 100 µM (inactive); in the experiment with SK-MEL-28, > 100 µM (inactive); in the experiment on CAKI-1, > 100 µM (inactive). Further, the GI50 was > 100 µM (inactive) with MDA-MB-231; > 100 µM (inactive) with OVCAR-3; > 100 µM (inactive) in the experiment with A498; > 100 µM (inactive) with EKVX; > 100 µM (inactive) with SNB-19; 50.6 µM (inactive) in the experiment with K562. Moreover, the GI50 with HOP-62 was > 100 µM (inactive); with MCF7, 90.6 µM (inactive); in the experiment on IGROV-1 it was > 100 µM (inactive); with A549, > 100 µM (inactive); in the experiment on NCI-H226, > 100 µM (inactive); in the experiment with MDA-N, > 100 µM (inactive). Also, the GI50 with NCI-H23 and in the experiment with Malme-3M was > 100 µM (inactive) each time.
Regarding `O=C(Nc1nn(C(=O)c2cccnc2)c(=O)s1)c1ccc(Cl)cc1`, the GI50 was 80.4 µM in the experiment on HCT-15; 85.9 µM (inactive) in the experiment with DU-145; > 100 µM (inactive) in the experiment on ACHN; 34 µM (inactive) in the experiment with CCRF-CEM; > 100 µM (inactive) in the experiment on SK-MEL-28; 40.6 µM (inactive) in the experiment on CAKI-1. Moreover, the GI50 is > 100 µM (inactive) in the experiment with MDA-MB-231; 43.1 µM (inactive) in the experiment with OVCAR-3; > 100 µM (inactive) with A498; 50.6 µM (inactive) in the experiment with EKVX; > 100 µM (inactive) in the experiment on SNB-19; 47.5 µM (inactive) in the experiment with K562. Besides, the GI50 is > 100 µM (inactive) in the experiment with HOP-62; 77.3 µM (inactive) in the experiment on MCF7; 99.8 µM (inactive) in the experiment on A549; 22.5 µM (inactive) in the experiment with NCI-H226; > 100 µM (inactive) in the experiment with MDA-N; > 100 µM (inactive) in the experiment on NCI-H23. For the same compound, the GI50 with Malme-3M is 31.6 µM (inactive).
With `O=C(c1cc(Cl)cc(Cl)c1)N(C(=O)N1CCN(c2ccccc2)CC1)c1ccccc1`, the 50% growth inhibitory concentration (GI50) was 17 µM with HCT-15; 80.9 µM (inactive) in the experiment with DU-145; 72.9 µM (inactive) in the experiment with ACHN; 22.5 µM (inactive) in the experiment on CCRF-CEM; 56.1 µM (inactive) with SK-MEL-28; 33.1 µM (inactive) with CAKI-1. The GI50 in the experiment on MDA-MB-231 is 52.1 µM (inactive); in the experiment on OVCAR-3 it was 66.1 µM (inactive); in the experiment with A498 it was 21.2 µM (inactive); in the experiment on EKVX it was 20.7 µM (inactive); with SNB-19 it was 53.3 µM (inactive); in the experiment with K562, 10.5 µM (inactive). The GI50 in the experiment on HOP-62 is 87.1 µM (inactive); in the experiment on MCF7 it was 29.9 µM (inactive); in the experiment with A549, 23.2 µM (inactive); in the experiment with NCI-H226, 22.8 µM (inactive); with MDA-N, 12.7 µM (inactive); in the experiment on NCI-H23, 41.1 µM (inactive). For the same compound, the GI50 in the experiment with Malme-3M is 47 µM (inactive).
Consider `CC1OC2=N[C@@H]1C(=O)N[C@@H](C(C)C)C1=N[C@H](C(=O)N[C@@H](C(C)C)C3=N[C@H](C(=O)N[C@@H](C(C)C)C4=N[C@H](C(=O)N[C@H]2C(C)C)C(C)O4)C(C)O3)C(C)O1` (stereo partly specified), for which the GI50 was greater than 10 µM in the experiment with HCT-15; > 10 µM (inactive) in the experiment with DU-145; > 10 µM (inactive) in the experiment on ACHN; > 10 µM (inactive) in the experiment on CCRF-CEM; > 10 µM (inactive) in the experiment on SK-MEL-28; > 10 µM (inactive) in the experiment with CAKI-1. The GI50 with MDA-MB-231, with OVCAR-3, with A498, in the experiment on EKVX, in the experiment with SNB-19 and with K562 was > 10 µM (inactive) throughout. The GI50 in the experiment with HOP-62, in the experiment with MCF7, with IGROV-1, with NCI-H226, with MDA-N and in the experiment on NCI-H23 was > 10 µM (inactive) throughout. The GI50 in the experiment with Malme-3M is > 10 µM (inactive).
As to `c1cncc(-c2ncc3cccnc3n2)c1`, the GI50 is greater than 100 µM in the experiment on HCT-15; 43.4 µM (inactive) in the experiment with DU-145; > 100 µM (inactive) with ACHN; > 100 µM (inactive) with CCRF-CEM; > 100 µM (inactive) with CAKI-1; > 100 µM (inactive) in the experiment with MDA-MB-231. Moreover, the GI50 in the experiment on OVCAR-3, with A498, in the experiment on EKVX, with SNB-19, in the experiment on K562 and with HOP-62 was > 100 µM (inactive) in each case. Also, the GI50 in the experiment with MCF7, with IGROV-1, in the experiment with A549, in the experiment with NCI-H226, in the experiment on MDA-N and with NCI-H23 was > 100 µM (inactive) in each case. For the same compound, the GI50 with Malme-3M is > 100 µM (inactive).
